Experimental data reported in PubChem BioAssay AID248 (DTP/NCI, 2004).
Values joined by “and” are separate entries in the source; they are usually repeats but may differ in a detail not shown here. Equal values may be shown once. Inconclusive results and toxic doses are left out. Rule as the data show it: active = T/C of 150% or more; inactive = T/C below 125%.

Tested on: L1210 leukemia ip in BDF1 mice, survival T/C
Assay: NCI In Vivo Anticancer Drug Screen. Data for tumor model L1210 Leukemia (intraperitoneal) in B6D2F1 (BDF1) mice
Details: endpoint: mean survival time, higher = longer survival
Method in brief: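 Each compound was tested against a transplantable tumor grown in mice. The endpoint was survival, with treated animals benchmarked against vehicle controls as a simple ratio.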

[1] = dose: 5.0 mg/kg/injection, schedule: Q01DX001 (ip), vehicle: saline
[2] = dose: 10.0 mg/kg/injection, schedule: Q01DX001 (ip), vehicle: saline
[3] = dose: 20.0 mg/kg/injection, schedule: Q01DX001 (ip), vehicle: saline
[4] = dose: 40.0 mg/kg/injection, schedule: Q01DX001 (ip), vehicle: saline
[5] = dose: 80.0 mg/kg/injection, schedule: Q01DX001 (ip), vehicle: saline
[6] = dose: 100.0 mg/kg/injection, schedule: Q01DX001 (ip), vehicle: saline
[7] = dose: 200.0 mg/kg/injection, schedule: Q01DX001 (ip), vehicle: saline
[8] = dose: 400.0 mg/kg/injection, schedule: Q01DX001 (ip), vehicle: saline
[9] = dose: 100.0 mg/kg/injection, schedule: Q01DX009 (ip), vehicle: Klucel (hydroxypropylcellulose) (HPC)
[10] = dose: 200.0 mg/kg/injection, schedule: Q01DX009 (ip), vehicle: Klucel (hydroxypropylcellulose) (HPC)
[11] = dose: 400.0 mg/kg/injection, schedule: Q01DX009 (ip), vehicle: Klucel (hydroxypropylcellulose) (HPC)
[12] = dose: 100.0 mg/kg/injection, schedule: Q04DX003 (ip), vehicle: Klucel (hydroxypropylcellulose) (HPC)
[13] = dose: 200.0 mg/kg/injection, schedule: Q04DX003 (ip), vehicle: Klucel (hydroxypropylcellulose) (HPC)
[14] = dose: 400.0 mg/kg/injection, schedule: Q04DX003 (ip), vehicle: Klucel (hydroxypropylcellulose) (HPC)
[15] = dose: 100.0 mg/kg/injection, schedule: Q01DX001 (ip), vehicle: Klucel (hydroxypropylcellulose) (HPC)
[16] = dose: 200.0 mg/kg/injection, schedule: Q01DX001 (ip), vehicle: Klucel (hydroxypropylcellulose) (HPC)

Measured: T/C

Cc1cc(=O)[nH]c2c(Br)cccc12
inactive: dose: 75.0 mg/kg/injection, schedule: Q04DX003 (ip), vehicle: Klucel (hydroxypropylcellulose) (HPC) 87 % of control | dose: 150.0 mg/kg/injection, schedule: Q04DX003 (ip), vehicle: Klucel (hydroxypropylcellulose) (HPC) 97 % of control | dose: 300.0 mg/kg/injection, schedule: Q04DX003 (ip), vehicle: Klucel (hydroxypropylcellulose) (HPC) 97 % of control

CCOCCOCCOC(C)Oc1ccc(C(C)C)cc1 (centres undefined)
inactive: dose: 100.0 mg/kg/injection, schedule: Q04DX002 (ip), vehicle: saline 93 % of control | dose: 200.0 mg/kg/injection, schedule: Q04DX002 (ip), vehicle: saline 104 % of control | dose: 400.0 mg/kg/injection, schedule: Q04DX002 (ip), vehicle: saline 101 % of control

C=COC(=O)CCCCCCC (tested in a mixture with another compound)
inactive: dose: 4.0 mg/kg/injection, schedule: Q01DX001 (ip), vehicle: acetone 89 % of control | dose: 5.0 mg/kg/injection, schedule: Q01DX001 (ip), vehicle: acetone 94 % of control | [1] 97 % of control | dose: 6.0 mg/kg/injection, schedule: Q01DX001 (ip), vehicle: acetone 106 % of control | dose: 10.0 mg/kg/injection, schedule: Q01DX001 (ip), vehicle: acetone 93 % of control | [2] 87 % of control | dose: 20.0 mg/kg/injection, schedule: Q01DX001 (ip), vehicle: acetone 92 % of control | [3] 101 % of control | dose: 40.0 mg/kg/injection, schedule: Q01DX001 (ip), vehicle: acetone 95 % of control | [4] 97 % of control | dose: 80.0 mg/kg/injection, schedule: Q01DX001 (ip), vehicle: acetone 90 % of control | [5] 102 % of control | [6] 110 % of control and 104 % of control and 105 % of control | [7] 94 % of control | [8] 100 % of control and 101 % of control

Cn1c(=O)n(OS(=O)(=O)c2ccccc2)c(=O)c2ccccc21
inactive: dose: 100.0 mg/kg/injection, schedule: Q01DX009 (ip), vehicle: other 107 % of control | dose: 200.0 mg/kg/injection, schedule: Q01DX009 (ip), vehicle: other 96 % of control | dose: 400.0 mg/kg/injection, schedule: Q01DX009 (ip), vehicle: other 98 % of control

Oc1ccc(Br)cc1Sc1cc(Br)ccc1O
inactive: dose: 100.0 mg/kg/injection, schedule: Q01DX001 (ip), vehicle: carboxymethylcellulose (CMC) 100 % of control | [6] 97 % of control | dose: 200.0 mg/kg/injection, schedule: Q01DX001 (ip), vehicle: carboxymethylcellulose (CMC) 103 % of control | [7] 95 % of control | dose: 400.0 mg/kg/injection, schedule: Q01DX001 (ip), vehicle: carboxymethylcellulose (CMC) 95 % of control | [8] 95 % of control

O=C(Nc1ccccc1O)c1ccccc1Cl
inactive: [9] 96 % of control | [10] 98 % of control | [11] 91 % of control

CC1(C)OC2COC(c3[nH]nc(C(N)=O)c3I)C2O1 (centres undefined)
inactive: dose: 100.0 mg/kg/injection, schedule: Q01DX005 (ip), vehicle: saline 93 % of control | dose: 200.0 mg/kg/injection, schedule: Q01DX005 (ip), vehicle: saline 95 % of control

O=c1cc(CBr)c2ccccc2[nH]1
inactive: [1] 100 % of control | dose: 6.25 mg/kg/injection, schedule: Q01DX009 (ip), vehicle: saline with Tween-80 105 % of control | [2] 94 % of control | dose: 12.5 mg/kg/injection, schedule: Q01DX009 (ip), vehicle: saline with Tween-80 90 % of control | [3] 100 % of control | [4] 103 % of control | [5] 97 % of control

CC(C)(Oc1ccc(Cl)cc1)C(=O)NCCCCCC(=O)O
inactive: dose: 50.0 mg/kg/injection, schedule: Q01DX009 (ip), vehicle: saline with Tween-80 98 % of control | dose: 100.0 mg/kg/injection, schedule: Q01DX009 (ip), vehicle: saline with Tween-80 98 % of control | dose: 200.0 mg/kg/injection, schedule: Q01DX009 (ip), vehicle: saline with Tween-80 95 % of control

CCCCNC(=O)Nc1c(C)cccc1Cl
inactive: [9] 101 % of control | [12] 101 % of control | [10] 90 % of control | [13] 97 % of control | [11] 87 % of control | [14] 88 % of control

COc1ccc2c(c1OC)C(=O)OC2c1ccc(O)c(Br)c1 (centres undefined)
inactive: dose: 100.0 mg/kg/injection, schedule: Q01DX009 (ip), vehicle: alcohol 95 % of control | dose: 100.0 mg/kg/injection, schedule: Q04DX003 (ip), vehicle: saline 109 % of control | dose: 200.0 mg/kg/injection, schedule: Q01DX009 (ip), vehicle: alcohol 97 % of control | dose: 200.0 mg/kg/injection, schedule: Q04DX003 (ip), vehicle: saline 106 % of control | dose: 400.0 mg/kg/injection, schedule: Q01DX009 (ip), vehicle: alcohol 95 % of control | dose: 400.0 mg/kg/injection, schedule: Q04DX003 (ip), vehicle: saline 101 % of control

Nc1nc(O)c2[nH]c(N=Nc3ccc(-c4ccc(N=Nc5nc6nc(N)nc(O)c6[nH]5)cc4)cc3)nc2n1
inactive: [12] 98 % of control | [13] 93 % of control | [14] 88 % of control

CC(C)CCOc1ccc(C(N)=S)c2ccccc12
inactive: [15] 112 % of control | [16] 112 % of control | dose: 400.0 mg/kg/injection, schedule: Q01DX001 (ip), vehicle: Klucel (hydroxypropylcellulose) (HPC) 102 % of control

O=C(Nc1cccc2ccccc12)Oc1cccc2cccnc12
inactive: dose: 50.0 mg/kg/injection, schedule: Q01DX001 (ip), vehicle: Klucel (hydroxypropylcellulose) (HPC) 96 % of control | [15] 105 % of control | [16] 105 % of control

N=C(N)SCc1ccc(Cl)cc1N
inactive: dose: 25.0 mg/kg/injection, schedule: Q04DX002 (ip), vehicle: Klucel (hydroxypropylcellulose) (HPC) 97 % of control | dose: 50.0 mg/kg/injection, schedule: Q04DX002 (ip), vehicle: Klucel (hydroxypropylcellulose) (HPC) 102 % of control | dose: 100.0 mg/kg/injection, schedule: Q04DX002 (ip), vehicle: Klucel (hydroxypropylcellulose) (HPC) 103 % of control

COC1=C(Cl)C(OC)(OC)C(Cl)=C1Cl
inactive: dose: 75.0 mg/kg/injection, schedule: Q01DX001 (ip), vehicle: carboxymethylcellulose (CMC) 107 % of control | dose: 150.0 mg/kg/injection, schedule: Q01DX001 (ip), vehicle: carboxymethylcellulose (CMC) 102 % of control | dose: 300.0 mg/kg/injection, schedule: Q01DX001 (ip), vehicle: carboxymethylcellulose (CMC) 104 % of control

Cc1ccon1
inactive: [6] 102 % of control | [7] 100 % of control | [8] 96 % of control

COC(=O)c1cccc([N+](=O)[O-])c1Br
inactive: dose: 50.0 mg/kg/injection, schedule: Q01DX001 (ip), vehicle: other 102 % of control | dose: 100.0 mg/kg/injection, schedule: Q01DX001 (ip), vehicle: other 96 % of control | dose: 200.0 mg/kg/injection, schedule: Q01DX001 (ip), vehicle: other 102 % of control | dose: 400.0 mg/kg/injection, schedule: Q01DX001 (ip), vehicle: other 100 % of control
